Test results reported in US20200222474A1, “COMPOSITIONS AND METHODS FOR INCREASING PHYTOCHEMICAL BIOAVAILABLITY AND BIOACTIVITY” (North Carolina State University, priority 2017, published 2020).

Tested on: L. acidophilus NCFM
Test: RNA-seq transcriptional analysis of L. acidophilus NCFM growing on plant glycosides
Format: cell-based, Lactobacillus acidophilus
[1] = LBA0329 Putative cell division protein, COG D
[2] = LBA0466 Hypothetical protein, COG C
[3] = LBA0500 MSM operon repressor, COG K
[4] = LBA0545 Hypothetical protein, COG L
[5] = LBA0547 Putative site-specific recombinase, COG L
[6] = LBA0573 Putative transcriptional regulator, COG K
[7] = LBA0607 Putative transcriptional regulator, COG K
[8] = LBA0672 Putative phosphate starvation inducible protein stress related, COG J
[9] = LBA0753 Multi-drug-type permease, COG GEPR
[10] = LBA0886 Sugar kinase-putative transcriptional regulator, COG KG
[11] = LBA0887 Hypothetical protein, COG C
[12] = LBA0897 Putative Cro-like protein, COG K
[13] = LBA0910 L-lactate dehydrogenase, COG C
[14] = LBA1021 Putative transcriptional regulator, COG K
[15] = LBA1220 Pyridine mercuric reductase, COG C
[16] = LBA1392 Mucus binding protein precursor Mub, COG J
[17] = LBA1411 Fumarate reductase flavoprotein subunit, COG CS
[18] = LBA1436 Glycerol uptake facilitator protein, COG G
[19] = LBA1457 Galactose-1-epimerase, COG G
[20] = LBA1458 Galactose-1-phosphate uridylyltransferase, COG G
[21] = LBA1462 Beta-galactosidase, COG G
[22] = LBA1463 Lactose permease, COG G
[23] = LBA1465 Transcription repressor of beta-galactosidasegene, COG K
[24] = LBA1467 Beta-galactosidase large subunit (lactase), COG G
[25] = LBA1468 Beta-galactosidase small subunit, COG G

Structure (SMILES): N#C[C@H](O[C@@H]1O[C@H](CO[C@@H]2O[C@H](CO)[C@@H](O)[C@H](O)[C@H]2O)[C@@H](O)[C@H](O)[C@H]1O)c1ccccc1 [Amygdalin]
- Log2 differential normalized TPM ratio compared to glucose (LBA0016 Fructokinase, COG KG): 2.4
- Log2 differential normalized TPM ratio compared to lactose (LBA0016 Fructokinase, COG KG): 1.2
- Transcripts per million (rpm) (LBA0016 Fructokinase, COG KG): 387.4 rpm
- Log2 differential normalized TPM ratio compared to glucose [1]: −0.1
- Log2 differential normalized TPM ratio compared to lactose [1]: −0.5
- Transcripts per million (rpm) [1]: 12.3 rpm
- Log2 differential normalized TPM ratio compared to glucose [2]: 5.2
- Log2 differential normalized TPM ratio compared to lactose [2]: 3.7
- Transcripts per million (rpm) [2]: 2769.5 rpm
- Log2 differential normalized TPM ratio compared to glucose [3]: 2
- Log2 differential normalized TPM ratio compared to lactose [3]: 0.4
- Transcripts per million (rpm) [3]: 169.5 rpm
- Log2 differential normalized TPM ratio compared to glucose [4]: 2
- Log2 differential normalized TPM ratio compared to lactose [4]: 0
- Transcripts per million (rpm) [4]: 244.7 rpm
- Log2 differential normalized TPM ratio compared to glucose [5]: 1.5
- Log2 differential normalized TPM ratio compared to lactose [5]: −0.3
- Transcripts per million (rpm) [5]: 24.9 rpm
- Log2 differential normalized TPM ratio compared to glucose [6]: −1.5
- Log2 differential normalized TPM ratio compared to lactose [6]: −1.6
- Transcripts per million (rpm) [6]: 26.5 rpm
- Log2 differential normalized TPM ratio compared to glucose [7]: 2.7
- Log2 differential normalized TPM ratio compared to lactose [7]: 2.2
- Transcripts per million (rpm) [7]: 252.9 rpm
- Log2 differential normalized TPM ratio compared to glucose [8]: 2.7
- Log2 differential normalized TPM ratio compared to lactose [8]: 1.9
- Transcripts per million (rpm) [8]: 8689.6 rpm
- Log2 differential normalized TPM ratio compared to glucose [9]: −0.6
- Log2 differential normalized TPM ratio compared to lactose [9]: 0.1
- Transcripts per million (rpm) [9]: 26.1 rpm
- Log2 differential normalized TPM ratio compared to glucose [10]: 2.2
- Log2 differential normalized TPM ratio compared to lactose [10]: 2
- Transcripts per million (rpm) [10]: 25.1 rpm
- Log2 differential normalized TPM ratio compared to glucose [11]: 2.4
- Log2 differential normalized TPM ratio compared to lactose [11]: 1.2
- Transcripts per million (rpm) [11]: 247 rpm
- Log2 differential normalized TPM ratio compared to glucose [12]: −2.3
- Log2 differential normalized TPM ratio compared to lactose [12]: 0.2
- Transcripts per million (rpm) [12]: 0.4 rpm
- Log2 differential normalized TPM ratio compared to glucose [13]: 3.9
- Log2 differential normalized TPM ratio compared to lactose [13]: 2.9
- Transcripts per million (rpm) [13]: 1594.3 rpm
- Log2 differential normalized TPM ratio compared to glucose [14]: −1.2
- Log2 differential normalized TPM ratio compared to lactose [14]: −1.5
- Transcripts per million (rpm) [14]: 52.4 rpm
- Log2 differential normalized TPM ratio compared to glucose [15]: 1.2
- Log2 differential normalized TPM ratio compared to lactose [15]: 0.2
- Transcripts per million (rpm) [15]: 377.5 rpm
- Log2 differential normalized TPM ratio compared to glucose [16]: 0.8
- Log2 differential normalized TPM ratio compared to lactose [16]: 1.1
- Transcripts per million (rpm) [16]: 148.6 rpm
- Log2 differential normalized TPM ratio compared to glucose [17]: 4
- Log2 differential normalized TPM ratio compared to lactose [17]: 2.9
- Transcripts per million (rpm) [17]: 28.7 rpm
- Log2 differential normalized TPM ratio compared to glucose [18]: 7.2
- Log2 differential normalized TPM ratio compared to lactose [18]: 3.5
- Transcripts per million (rpm) [18]: 328.8 rpm
- Log2 differential normalized TPM ratio compared to glucose [19]: 2.6
- Log2 differential normalized TPM ratio compared to lactose [19]: −3
- Transcripts per million (rpm) [19]: 74.9 rpm
- Log2 differential normalized TPM ratio compared to glucose [20]: 2.8
- Log2 differential normalized TPM ratio compared to lactose [20]: −2.9
- Transcripts per million (rpm) [20]: 74 rpm
- Log2 differential normalized TPM ratio compared to glucose (LBA1459 Galactokinase, COG G): 1.8
- Log2 differential normalized TPM ratio compared to lactose (LBA1459 Galactokinase, COG G): −2.8
- Transcripts per million (rpm) (LBA1459 Galactokinase, COG G): 70.3 rpm
- Log2 differential normalized TPM ratio compared to glucose [21]: −0.5
- Log2 differential normalized TPM ratio compared to lactose [21]: −6.5
- Transcripts per million (rpm) [21]: 10.2 rpm
- Log2 differential normalized TPM ratio compared to glucose [22]: 0.2
- Log2 differential normalized TPM ratio compared to lactose [22]: −4.5
- Transcripts per million (rpm) [22]: 50.7 rpm
- Log2 differential normalized TPM ratio compared to glucose (LBA1464 Transposase, COG L): −0.1
- Log2 differential normalized TPM ratio compared to lactose (LBA1464 Transposase, COG L): −2.5
- Transcripts per million (rpm) (LBA1464 Transposase, COG L): 133.1 rpm
- Log2 differential normalized TPM ratio compared to glucose [23]: −0.1
- Log2 differential normalized TPM ratio compared to lactose [23]: −3.2
- Transcripts per million (rpm) [23]: 43.7 rpm
- Log2 differential normalized TPM ratio compared to glucose [24]: 3.3
- Log2 differential normalized TPM ratio compared to lactose [24]: −5.5
- Transcripts per million (rpm) [24]: 42.2 rpm
- Log2 differential normalized TPM ratio compared to glucose [25]: 1.8
- Log2 differential normalized TPM ratio compared to lactose [25]: −4.6
